Earlier results on 1 compound are cited in article PMC4594385 (Journal of Medical Physics / Association of Medical …, 2015).

For this data set the following is noted: compared with femur uptake at 4 h; ref Banerjee et al. [1].

In the case of `O=P([O-])(O)CN(CCN(CP(=O)([O-])O)CP(=O)(O)O)CP(=O)([O-])O.[153Sm+3]` [^153Sm-EDTMP], the Bone uptake is on record as 3.72 %ID/g.
